Reference: US11981658B2, “Substituted aminopyridine compounds as EGFR inhibitors” (YUHAN CORPORATION, priority 2021, dated 2024)
Where two headings read alike, the source gives them in different places.

Tests used:
EGFR Del19/T790M/C797S = EGFR Del19/T790M/C797S (Homo sapiens, UniProt P00533, C797S/DEL746-750/T790M); test: Biochemical EGFR kinase inhibition assay (Lance Ultra TR-FRET), triple mutant del19/T790M/C797S
Summary of the method: (§1)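 Enzyme reactions lasted 1 hour at room temperature with test compounds between 0.003 and 10 μM, followed by 10 mM EDTA quench.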

EGFR L858R/T790M/C797S = EGFR L858R/T790M/C797S (Homo sapiens, UniProt P00533, C797S/L858R/T790M); test: Biochemical EGFR kinase inhibition assay (Lance Ultra TR-FRET), triple mutant L858R/T790M/C797S
Summary of the method: as §1

EGFR Del19/C797S = EGFR Del19/C797S (Homo sapiens, UniProt P00533, C797S/DEL746-750); test: Biochemical EGFR kinase inhibition assay (Lance Ultra TR-FRET), double mutant del19/C797S
Sequence of EGFR Del19/C797S (P00533 with tags, fused parts or gaps DEL746-750/C797S): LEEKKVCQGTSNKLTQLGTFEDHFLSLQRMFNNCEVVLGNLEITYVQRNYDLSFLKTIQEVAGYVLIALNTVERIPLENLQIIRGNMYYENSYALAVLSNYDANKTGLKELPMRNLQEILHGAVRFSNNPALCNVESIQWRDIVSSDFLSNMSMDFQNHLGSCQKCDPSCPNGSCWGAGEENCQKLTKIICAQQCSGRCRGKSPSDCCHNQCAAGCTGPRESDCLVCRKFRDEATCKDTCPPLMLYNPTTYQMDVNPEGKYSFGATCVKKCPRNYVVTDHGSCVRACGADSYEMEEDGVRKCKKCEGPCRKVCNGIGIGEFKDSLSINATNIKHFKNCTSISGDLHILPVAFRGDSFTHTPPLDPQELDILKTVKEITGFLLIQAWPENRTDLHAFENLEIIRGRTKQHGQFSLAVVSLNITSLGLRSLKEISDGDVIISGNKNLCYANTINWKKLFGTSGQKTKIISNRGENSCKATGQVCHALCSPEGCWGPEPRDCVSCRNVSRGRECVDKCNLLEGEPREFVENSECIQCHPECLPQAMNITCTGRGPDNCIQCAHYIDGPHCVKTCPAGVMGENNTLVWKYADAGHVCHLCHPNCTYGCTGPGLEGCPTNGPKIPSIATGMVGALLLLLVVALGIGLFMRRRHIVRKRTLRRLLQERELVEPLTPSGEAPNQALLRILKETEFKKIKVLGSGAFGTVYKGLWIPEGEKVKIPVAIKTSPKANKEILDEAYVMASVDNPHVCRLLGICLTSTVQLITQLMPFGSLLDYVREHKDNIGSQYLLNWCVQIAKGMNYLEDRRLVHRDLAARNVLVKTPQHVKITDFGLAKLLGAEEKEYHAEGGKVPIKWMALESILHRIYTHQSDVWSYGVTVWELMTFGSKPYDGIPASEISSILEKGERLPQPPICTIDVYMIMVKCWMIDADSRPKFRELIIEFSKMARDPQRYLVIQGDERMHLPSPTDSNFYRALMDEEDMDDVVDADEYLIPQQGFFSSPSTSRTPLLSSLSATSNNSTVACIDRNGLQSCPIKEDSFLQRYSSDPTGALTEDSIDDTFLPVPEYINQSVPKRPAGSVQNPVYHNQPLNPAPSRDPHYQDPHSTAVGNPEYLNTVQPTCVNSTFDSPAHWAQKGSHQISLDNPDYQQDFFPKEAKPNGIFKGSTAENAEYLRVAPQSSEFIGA
Summary of the method: as §1

EGFR L858R/C797S = EGFR L858R/C797S (Homo sapiens, UniProt P00533, C797S/L858R); test: Biochemical EGFR kinase inhibition assay (Lance Ultra TR-FRET), double mutant L858R/C797S
Sequence of EGFR L858R/C797S (P00533 25-1210 C797S/L858R): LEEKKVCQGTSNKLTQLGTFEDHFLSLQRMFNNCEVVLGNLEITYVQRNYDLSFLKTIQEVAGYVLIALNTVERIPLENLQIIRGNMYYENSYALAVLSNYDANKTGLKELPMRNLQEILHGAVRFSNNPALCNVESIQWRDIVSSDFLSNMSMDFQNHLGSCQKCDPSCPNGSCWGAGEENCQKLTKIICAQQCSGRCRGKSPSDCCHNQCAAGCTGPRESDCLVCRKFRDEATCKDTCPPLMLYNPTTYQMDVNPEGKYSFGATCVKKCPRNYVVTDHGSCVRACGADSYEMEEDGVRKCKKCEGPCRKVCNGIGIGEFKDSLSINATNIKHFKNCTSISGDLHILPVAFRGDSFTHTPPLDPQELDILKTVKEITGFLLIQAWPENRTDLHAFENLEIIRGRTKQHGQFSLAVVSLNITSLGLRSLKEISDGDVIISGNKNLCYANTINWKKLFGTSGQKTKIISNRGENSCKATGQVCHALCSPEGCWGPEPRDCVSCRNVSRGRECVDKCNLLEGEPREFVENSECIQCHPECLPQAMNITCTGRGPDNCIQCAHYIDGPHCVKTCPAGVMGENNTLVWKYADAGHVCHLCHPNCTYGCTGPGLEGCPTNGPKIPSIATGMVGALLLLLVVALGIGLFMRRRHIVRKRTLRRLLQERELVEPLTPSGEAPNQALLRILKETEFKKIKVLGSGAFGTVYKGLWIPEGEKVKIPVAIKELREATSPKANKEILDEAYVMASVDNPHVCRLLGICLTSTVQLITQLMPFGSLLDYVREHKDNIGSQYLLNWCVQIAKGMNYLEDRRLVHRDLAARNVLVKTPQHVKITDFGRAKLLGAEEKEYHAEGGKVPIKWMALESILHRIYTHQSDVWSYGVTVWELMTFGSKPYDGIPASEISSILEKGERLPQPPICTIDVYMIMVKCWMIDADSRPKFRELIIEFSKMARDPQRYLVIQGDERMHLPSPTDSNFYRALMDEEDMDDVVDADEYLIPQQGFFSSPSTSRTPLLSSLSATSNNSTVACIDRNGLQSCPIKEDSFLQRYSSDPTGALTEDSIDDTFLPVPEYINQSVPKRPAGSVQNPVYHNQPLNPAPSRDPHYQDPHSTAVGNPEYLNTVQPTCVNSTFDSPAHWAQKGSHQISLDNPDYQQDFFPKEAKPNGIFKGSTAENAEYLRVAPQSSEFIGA
Summary of the method: as §1

EGFR wildtype (WT) = EGFR wildtype (WT) (Homo sapiens, UniProt P00533); test: Biochemical EGFR kinase inhibition assay (Lance Ultra TR-FRET), wildtype
Sequence of EGFR wildtype (WT) (P00533 25-1210): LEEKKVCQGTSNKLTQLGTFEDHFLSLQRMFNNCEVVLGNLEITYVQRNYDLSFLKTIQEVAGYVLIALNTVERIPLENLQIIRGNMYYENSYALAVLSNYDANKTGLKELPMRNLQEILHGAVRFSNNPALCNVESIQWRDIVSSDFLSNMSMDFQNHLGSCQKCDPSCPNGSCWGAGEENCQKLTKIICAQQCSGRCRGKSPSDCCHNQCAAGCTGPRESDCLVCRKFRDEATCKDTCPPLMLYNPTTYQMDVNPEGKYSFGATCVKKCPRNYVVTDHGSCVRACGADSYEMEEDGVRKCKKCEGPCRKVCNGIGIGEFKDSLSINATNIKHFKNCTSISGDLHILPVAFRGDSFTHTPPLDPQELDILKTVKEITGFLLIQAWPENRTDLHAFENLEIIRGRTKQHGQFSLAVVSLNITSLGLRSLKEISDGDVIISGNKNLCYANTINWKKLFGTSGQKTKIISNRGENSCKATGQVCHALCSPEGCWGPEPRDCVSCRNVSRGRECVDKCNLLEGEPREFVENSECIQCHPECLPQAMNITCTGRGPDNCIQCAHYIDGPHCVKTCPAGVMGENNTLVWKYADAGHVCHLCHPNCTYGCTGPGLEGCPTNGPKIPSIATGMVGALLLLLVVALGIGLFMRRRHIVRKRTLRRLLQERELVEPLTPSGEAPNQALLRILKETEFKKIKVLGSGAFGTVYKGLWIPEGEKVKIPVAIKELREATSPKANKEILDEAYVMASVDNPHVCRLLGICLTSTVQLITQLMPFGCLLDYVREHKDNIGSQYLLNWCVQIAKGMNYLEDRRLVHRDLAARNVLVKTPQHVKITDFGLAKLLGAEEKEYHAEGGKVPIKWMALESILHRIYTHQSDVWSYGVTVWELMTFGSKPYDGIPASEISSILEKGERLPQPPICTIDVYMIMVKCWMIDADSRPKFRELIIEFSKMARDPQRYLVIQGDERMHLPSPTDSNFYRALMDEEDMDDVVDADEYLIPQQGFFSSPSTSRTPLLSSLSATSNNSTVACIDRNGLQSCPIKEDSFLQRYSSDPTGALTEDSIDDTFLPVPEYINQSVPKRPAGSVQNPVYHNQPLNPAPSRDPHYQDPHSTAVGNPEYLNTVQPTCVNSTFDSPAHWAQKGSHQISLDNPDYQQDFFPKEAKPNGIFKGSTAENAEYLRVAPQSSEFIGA
Summary of the method: as §1

[1] = IC50 Del19/T790M/C797S (nM), 100 μM ATP
[2] = IC50 L858R/T790M/C797S (nM), 100 μM ATP
[3] = IC50 Del19/C797S (nM), 100 μM ATP
[4] = IC50 L858R/C797S (nM), 100 μM ATP
[5] = Km ATP, read-out: IC50 Del19/T790M/C797S (nM) Km ATP
[6] = Km ATP, read-out: IC50 L858R/T790M/C797S (nM) Km ATP
[7] = Km ATP, read-out: IC50 Del19/C797S (nM) Km ATP
[8] = Km ATP, read-out: IC50 L858R/C797S (nM) Km ATP
[9] = Km ATP, read-out: IC50 WT (nM) Km ATP
[10] = Km ATP, read-out: IC50 Del19/T790M/C797S (nM), Km ATP
[11] = Km ATP, read-out: IC50 L858R/T790M/C797S (nM), Km ATP
[12] = Km ATP, read-out: IC50 Del19/C797S (nM), Km ATP
[13] = Km ATP, read-out: IC50 L858R/C797S (nM), Km ATP
[14] = Km ATP, read-out: IC50 WT (nM), Km ATP

Sequence of EGFR Del19/T790M/C797S (P00533 with tags, fused parts or gaps DEL746-750/T790M/C797S): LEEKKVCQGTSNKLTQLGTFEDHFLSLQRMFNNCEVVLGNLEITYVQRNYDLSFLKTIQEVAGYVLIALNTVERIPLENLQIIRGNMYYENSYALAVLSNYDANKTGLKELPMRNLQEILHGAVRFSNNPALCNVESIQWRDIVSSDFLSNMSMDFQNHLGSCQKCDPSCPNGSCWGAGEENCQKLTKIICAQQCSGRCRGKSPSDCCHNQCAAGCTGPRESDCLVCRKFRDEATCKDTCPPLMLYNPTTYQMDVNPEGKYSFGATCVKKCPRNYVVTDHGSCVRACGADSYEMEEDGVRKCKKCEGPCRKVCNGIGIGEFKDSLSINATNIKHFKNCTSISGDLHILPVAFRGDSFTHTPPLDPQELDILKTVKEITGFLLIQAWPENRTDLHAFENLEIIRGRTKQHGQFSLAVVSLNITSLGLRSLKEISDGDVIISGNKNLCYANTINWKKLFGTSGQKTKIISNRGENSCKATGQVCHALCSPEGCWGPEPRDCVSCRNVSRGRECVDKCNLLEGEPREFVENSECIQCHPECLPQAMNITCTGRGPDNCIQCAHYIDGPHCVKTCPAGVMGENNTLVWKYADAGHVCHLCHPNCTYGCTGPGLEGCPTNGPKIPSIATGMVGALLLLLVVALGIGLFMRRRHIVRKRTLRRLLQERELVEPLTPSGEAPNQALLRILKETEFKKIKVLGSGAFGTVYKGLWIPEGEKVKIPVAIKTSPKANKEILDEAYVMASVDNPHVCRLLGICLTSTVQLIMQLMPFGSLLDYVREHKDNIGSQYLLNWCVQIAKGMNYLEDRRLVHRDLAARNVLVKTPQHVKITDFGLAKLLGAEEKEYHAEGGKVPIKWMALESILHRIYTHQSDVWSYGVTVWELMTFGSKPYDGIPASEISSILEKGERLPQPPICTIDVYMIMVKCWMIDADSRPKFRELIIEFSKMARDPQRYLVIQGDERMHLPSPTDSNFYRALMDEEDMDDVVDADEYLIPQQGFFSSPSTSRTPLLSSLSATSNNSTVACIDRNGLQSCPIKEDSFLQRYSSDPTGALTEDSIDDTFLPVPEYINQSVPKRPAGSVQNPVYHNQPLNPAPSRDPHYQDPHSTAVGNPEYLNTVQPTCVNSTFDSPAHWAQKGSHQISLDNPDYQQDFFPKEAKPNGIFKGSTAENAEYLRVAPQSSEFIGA

Structure (SMILES)	IC50 (EGFR Del19/T790M/C797S; ATP at Km, read-out: IC50 Del19/T790M/C797S (nM), Km ATP)	IC50 (EGFR Del19/T790M/C797S; [1])	IC50 (EGFR L858R/T790M/C797S; ATP at Km, read-out: IC50 L858R/T790M/C797S (nM), Km ATP)	IC50 (EGFR L858R/T790M/C797S; [2])	IC50 (EGFR Del19/C797S; ATP at Km, read-out: IC50 Del19/C797S (nM), Km ATP)	IC50 (EGFR Del19/C797S; [3])	IC50 (EGFR L858R/C797S; ATP at Km, read-out: IC50 L858R/C797S (nM), Km ATP)	IC50 (EGFR L858R/C797S; [4])	IC50 (EGFR wildtype (WT); ATP at Km, read-out: IC50 WT (nM), Km ATP)	IC50 (EGFR wildtype (WT); IC50 WT (nM), 100 μM ATP)	IC50 (EGFR Del19/T790M/C797S; [5])	IC50 (EGFR L858R/T790M/C797S; [6])	IC50 (EGFR Del19/C797S; [7])	IC50 (EGFR L858R/C797S; [8])	IC50 (EGFR wildtype (WT); [9])	IC50 (EGFR Del19/T790M/C797S; [10])	IC50 (EGFR L858R/T790M/C797S; [11])	IC50 (EGFR Del19/C797S; [12])	IC50 (EGFR L858R/C797S; [13])	IC50 (EGFR wildtype (WT); [14])
CC1(CO)CCN(c2cc(Nc3ccnc(-c4cnn(S(=O)(=O)C5CC5)c4)n3)ncc2C#CC2CC(C(C)(C)O)C2)CC1 (centres unmarked) [Example 266, 2-(3-((6-((2-(1-(Cyclopropylsulfonyl)-1H-pyrazol-4-yl)pyrimidin-4-yl)amino)-4-(4-(hydroxymethyl)-4-methylpiperidin-1-yl)pyridin-3-yl)ethynyl)cyclobutyl)propan-2-ol]	1 nM	0.8 nM	0.4 nM	0.4 nM	1.1 nM	2.1 nM	0.9 nM	5.4 nM	7.2 nM	1230 nM										
CN(C)CCn1cc(C#Cc2cnc(Nc3ccnc(-c4cnn(S(=O)(=O)C5CC5)c4)n3)cc2N2CCCC(CO)C2)cn1 (centres unmarked) [Example 118, (1-(2-((2-(1-(Cyclopropylsulfonyl)-1H-pyrazol-4-yl)pyrimidin-4-yl)amino)-5-((1-(2-(dimethylamino)ethyl)-1H-pyrazol-4-yl)ethynyl)pyridin-4-yl)piperidin-3-yl)methanol]		0.6 nM		0.5 nM		0.8 nM		8.5 nM		2690 nM	0.5 nM	0.2 nM	0.7 nM	0.6 nM	10.2 nM					
Cn1cc(C#Cc2cnc(Nc3ccnc(-c4cnn(S(=O)(=O)C5CC5)c4)n3)cc2N[C@H]2CC[C@@](C)(O)CC2)cn1 [Example 81, (1s,4s)-4-((2-((2-(1-(Cyclopropylsulfonyl)-1H-pyrazol-4-yl)pyrimidin-4-yl)amino)-5-((1-methyl-1H-pyrazol-4-yl)ethynyl)pyridin-4-yl)amino)-1-methylcyclohexan-1-ol]		0.3 nM		0.4 nM		5.8 nM		79.1 nM		> 10000 nM	0.3 nM	0.2 nM	7.7 nM	5.3 nM	61.6 nM					
O=S(=O)(C1CC1)n1cc(-c2nccc(Nc3cc(N4CCC(CCO)CC4)c(C#Cc4cnn(CCF)c4)cn3)n2)cn1 [Example 17, 2-(1-(2-((2-(1-(Cyclopropylsulfonyl)-1H-pyrazol-4-yl)pyrimidin-4-yl)amino)-5-((1-(2-fluoroethyl)-1H-pyrazol-4-yl)ethynyl)pyridin-4-yl)piperidin-4-yl)ethan-1-ol]		2 nM		6.1 nM		10.3 nM		53.3 nM		> 10000 nM										
Cn1cc(C#Cc2cnc(Nc3ccnc(-c4cnn(S(=O)(=O)C5CC5)c4)n3)cc2N[C@H]2CC[C@@H](NCCF)CC2)cn1 [Example 80, N^2-(2-(1-(Cyclopropylsulfonyl)-1H-pyrazol-4-yl)pyrimidin-4-yl)-N^4-((1s, 4s)-4-((2-fluoroethyl)amino)cyclohexyl)-5-((1-methyl-1H-pyrazol-4-yl)ethynyl)pyridine-2,4-diamine]		0.6 nM		1.9 nM		16.1 nM		137 nM		> 10000 nM	0.5 nM	0.5 nM	12.3 nM	16.4 nM	80.1 nM					
Cn1cc(C#Cc2cnc(Nc3ccnc(-c4cnn(S(=O)(=O)C5CC5)c4)n3)cc2N2CC[C@@H](O)C2)cn1 [Example 31, (R)-1-(2-((2-(1-(Cyclopropylsulfonyl)-1H-pyrazol-4-yl)pyrimidin-4-yl)amino)-5-((1-methyl-1H-pyrazol-4-yl)ethynyl)pyridin-4-yl)pyrrolidin-3-ol]		0.7 nM		1.4 nM		6.5 nM		52.3 nM		> 10000 nM										
O=S(=O)(C1CC1)n1cc(-c2nccc(Nc3cc(N[C@H]4CC[C@@H](O)CC4)c(C#CC4COC4)cn3)n2)cn1 [Example 353, (1s,4s)-4-((2-((2-(1-(Cyclopropylsulfonyl)-1H-pyrazol-4-yl)pyrimidin-4-yl)amino)-5-(oxetan-3-ylethynyl)pyridin-4-yl)amino)cyclohexan-1-ol]		0.2 nM		0.2 nM		0.6 nM		16.6 nM		> 10000 nM						0.2 nM	0.1 nM	1 nM	3.3 nM	11.3 nM
CC1(CO)CCN(c2cc(Nc3ccnc(-c4cnn(S(=O)(=O)C5CC5)c4)n3)ncc2C#Cc2cnn(CC3CCOCC3)c2)CC1 [Example 231, (1-(2-((2-(1-(Cyclopropylsulfonyl)-1H-pyrazol-4-yl)pyrimidin-4-yl)amino)-5-((1-((tetrahydro-2H-pyran-4-yl)methyl)-1H-pyrazol-4-yl)ethynyl)pyridin-4-yl)-4-methylpiperidin-4-yl)methanol]		1.6 nM		1.5 nM		3 nM		4.6 nM		968 nM	1.7 nM	0.9 nM	1.3 nM	1.1 nM	6.1 nM					
CN1CCN(Cc2ccc(C#Cc3cnc(Nc4ccnc(-c5cnn(S(=O)(=O)C6CC6)c5)n4)cc3N[C@H]3CC[C@]4(CCC(=O)N4)CC3)cc2)CC1 [Example 362, (5s,8s)-8-((2-((2-(1-(Cyclopropylsulfonyl)-1H-pyrazol-4-yl)pyrimidin-4-yl)amino)-5-((4-((4-methylpiperazin-1-yl)methyl)phenyl)ethynyl)pyridin-4-yl)amino)-1-azaspiro[4.5]decan-2-one]		0.7 nM		0.6 nM		1.7 nM		3.2 nM		4900 nM						0.5 nM	0.1 nM	1.1 nM	0.9 nM	10.7 nM
CC1(CO)CCN(c2cc(Nc3ccnc(-c4cnn(S(=O)(=O)C5CC5)c4)n3)ncc2C#CC2(O)CCC2)CC1 [Example 351, 1-((6-((2-(1-(Cyclopropylsulfonyl)-1H-pyrazol-4-yl)pyrimidin-4-yl)amino)-4-(4-(hydroxymethyl)-4-methylpiperidin-1-yl)pyridin-3-yl)ethynyl)cyclobutan-1-ol]		1.2 nM		1.6 nM		3.7 nM		77.8 nM		7620 nM						1.6 nM	0.8 nM	4.9 nM	12.8 nM	44.2 nM
Cn1cc(C#Cc2cnc(Nc3ccnc(-c4cnn(S(=O)(=O)C5CC5)c4)n3)cc2N2CCC(OC(F)(F)F)CC2)cn1 [Example 67, 2-(1-(Cyclopropylsulfonyl)-1H-pyrazol-4-yl)-N-(5-((1-methyl-1H-pyrazol-4-yl)ethynyl)-4-(4-(trifluoromethoxy)piperidin-1-yl)pyridin-2-yl)pyrimidin-4-amine]		13.3 nM		27.7 nM		181 nM		209 nM		> 10000 nM										
